# Structures can show the parent of a compound that is named as a salt.
# How the values were obtained:
# [1] = target: T1, EZH2 within the PRC2 complex (Homo sapiens (Human), UniProt Q15910); assay: EZH2 methyltransferase SPA, biotinylated histone H3K27 peptide substrate (Assay Protocol 2); format: biochemical; details: 3H-SAM, ≦10 nM approaches limit of detection
# How it was run: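 Scintillation proximity read-out of 3H-methyl transfer onto biotinylated unmethylated H3K27 peptide (10 uM) captured on streptavidin beads; SAM 0.15 uM tritiated plus 2.85 uM cold.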
# [2] = target: T1, EZH2 within the PRC2 complex; assay: EZH2 methyltransferase SPA, mononucleosome substrate (Assay Protocol 1); format: biochemical; details: HeLa mononucleosome substrate, 3H-SAM, ≦10 nM approaches limit of detection
# Procedure: Compounds contained herein were evaluated for their ability to inhibit the methyltransferase activity of EZH2 within the PRC2 complex. Human PRC2 complex was prepared by co-expressing each of the 5 member proteins (FLAG-EZH2, EED, SUZ12, RbAp48, AEBP2) in Sf9 cells followed by co-purification. Enzyme activity was measured in a scintillation proximity assay (SPA) where a tritiated methyl group is transferred from 3H-SAM to a lysine residue on Histone H3 of a mononucleosome, purified from HeLa cells. Mononucleosomes were captured on SPA beads and the resulting signal is read on a ViewLux plate reader.
# Part A. Compound Preparation
# • 1. Prepare 10 mM stock of compounds from solid in 100% DMSO. • 2. Set up an 11-point serial dilution (1:3 dilution, top concentration 10 mM) in 100% DMSO for each test compound in a 384 well plate leaving columns 6 and 18 for DMSO controls. • 3. Dispense 100 nL of compound from the dilution plate into reaction plates (Grenier Bio-One, 384-well, Cat#784075). Part B. Reagent Preparation Prepare the following solutions: • 1. 50 mM Tris-HCl, pH 8: Per 1 L of base buffer, combine 1 M Tris-HCl, pH 8 (50 mL) and distilled water (950 mL). • 2. 1× Assay Buffer: Per 10 mL of 1× Assay Buffer, combine 50 mM Tris-HCl, pH 8 (9958 uL), 1 M MgCl2 (20 uL), 2 M DTT (20 uL), and 10% Tween-20 (2 uL) to provide a final concentration of 50 mM Tris-HCl, pH 8, 2 mM MgCl2, 4 mM DTT, 0.002% Tween-20. • 3. 2× Enzyme Solution: Per 10 mL of 2× Enzyme Solution, combine 1× Assay Buffer and PRC2 complex to provide a final enzyme concentration of 10 nM. • 4. SPA Bead Suspension: Per 1 mL of SPA Bead Suspension, combine PS-PEI coated LEADSeeker beads (40 mg) and H2O (1 mL) to provide a final concentration of 40 mg/mL. • 5. 2× Substrate Solution: Per 10 mL of 2× Substrate Solution, combine 1× Assay Buffer (9728.55 uL), 800 ug/mL mononucleosomes (125 uL), 1 mM cold SAM (4 uL), and 7.02 uM 3H-SAM (142.45 uL; 0.55 mCi/mL) to provide a final concentration of 5 ug/mL nucleosomes, 0.2 uM cold SAM, and 0.05 uM 3H-SAM. • 6. 2.67× Quench/Bead Mixture: Per 10 mL of 2.67× Quench/Bead Mixture, combine ddH2O (9358 uL), 10 mM cold SAM (267 uL), 40 mg/mL Bead Suspension (375 uL) to provide a final concentration of 100 uM cold SAM and 0.5 mg/mL SPA beads. Part C. Assay Reaction in 384-well Grenier Bio-One Plates Compound Addition • 1. Dispense 100 nL/well of 100× Compound to test wells (as noted above). • 2. Dispense 100 nL/well of 100% DMSO to columns 6 & 18 for high and low controls, respectively. Assay • 1. Dispense 5 uL/well of 1× Assay Buffer to column 18 (low control reactions). • 2. Dispense 5 uL/well of 2× Enzyme Solution to columns 1-17, 19-24. • 3. Spin assay plates for ˜1 min at 500 rpm. • 4. Stack the assay plates, covering the top plate. • 5. Incubate the compound/DMSO with the enzyme for 30 min at room temperature. • 6. Dispense 5 uL/well of 2× Substrate Solution to columns 1-24. • 7. Spin assay plates for ˜1 min at 500 rpm. • 8. Stack the assay plates, covering the top plate. • 9. Incubate the assay plates at room temperature for 1 hour. Quench/Bead Addition • 1. Dispense 5 uL/well of the 3× Quench/Bead Mixture to columns 1-24. • 2. Seal the top of each assay plate with adhesive TopSeal. • 3. Spin assay plates for ˜1 min at 500 rpm. • 4. Equilibrate the plates for >20 min. Read plates • 1. Read the assay plates on the Viewlux Plate Reader utilizing the 613 nm emission filter with a 300 s read time.
# Reagent addition can be done manually or with automated liquid handler. • The final DMSO concentration in this assay is 1%. • The positive control is in column 6; negative control is in column 18. • Final starting concentration of compounds is 100 µM. Results
# Percent inhibition was calculated relative to the DMSO control for each compound concentration and the resulting values were fit using standard IC50 fitting parameters within the ABASE data fitting software package.
# T1 sequence (Q15910 whole entry): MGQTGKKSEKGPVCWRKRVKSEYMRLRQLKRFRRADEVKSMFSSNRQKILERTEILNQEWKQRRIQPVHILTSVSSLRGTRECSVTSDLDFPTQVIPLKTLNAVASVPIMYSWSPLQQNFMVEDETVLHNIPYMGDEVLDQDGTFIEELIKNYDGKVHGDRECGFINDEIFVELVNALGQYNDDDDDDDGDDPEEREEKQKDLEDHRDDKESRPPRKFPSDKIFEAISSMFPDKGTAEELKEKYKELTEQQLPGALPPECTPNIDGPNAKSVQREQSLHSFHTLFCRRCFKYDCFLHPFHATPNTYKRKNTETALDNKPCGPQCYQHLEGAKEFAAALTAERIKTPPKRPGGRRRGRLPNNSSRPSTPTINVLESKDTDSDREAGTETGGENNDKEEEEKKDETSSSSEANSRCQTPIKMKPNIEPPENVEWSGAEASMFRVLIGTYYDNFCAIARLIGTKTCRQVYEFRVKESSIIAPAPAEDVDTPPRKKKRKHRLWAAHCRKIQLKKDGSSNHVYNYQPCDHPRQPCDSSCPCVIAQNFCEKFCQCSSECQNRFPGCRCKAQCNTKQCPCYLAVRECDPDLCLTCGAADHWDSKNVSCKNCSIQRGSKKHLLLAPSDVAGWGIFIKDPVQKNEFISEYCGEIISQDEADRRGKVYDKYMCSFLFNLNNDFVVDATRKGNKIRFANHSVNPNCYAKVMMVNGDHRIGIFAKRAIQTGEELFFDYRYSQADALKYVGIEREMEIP
# T1 sequence (O75530 whole entry partner): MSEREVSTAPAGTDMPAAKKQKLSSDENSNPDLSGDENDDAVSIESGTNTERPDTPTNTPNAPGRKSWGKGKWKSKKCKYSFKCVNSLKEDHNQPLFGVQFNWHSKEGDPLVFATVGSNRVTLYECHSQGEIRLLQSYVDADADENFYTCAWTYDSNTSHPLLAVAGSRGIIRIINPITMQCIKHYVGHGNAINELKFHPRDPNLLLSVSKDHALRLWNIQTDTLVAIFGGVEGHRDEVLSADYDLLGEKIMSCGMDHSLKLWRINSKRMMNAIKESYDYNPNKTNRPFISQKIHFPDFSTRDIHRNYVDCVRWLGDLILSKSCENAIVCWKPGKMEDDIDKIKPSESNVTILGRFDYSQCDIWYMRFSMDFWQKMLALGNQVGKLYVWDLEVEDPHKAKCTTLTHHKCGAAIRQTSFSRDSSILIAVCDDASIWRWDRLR
# T1 sequence (Q15022 whole entry partner): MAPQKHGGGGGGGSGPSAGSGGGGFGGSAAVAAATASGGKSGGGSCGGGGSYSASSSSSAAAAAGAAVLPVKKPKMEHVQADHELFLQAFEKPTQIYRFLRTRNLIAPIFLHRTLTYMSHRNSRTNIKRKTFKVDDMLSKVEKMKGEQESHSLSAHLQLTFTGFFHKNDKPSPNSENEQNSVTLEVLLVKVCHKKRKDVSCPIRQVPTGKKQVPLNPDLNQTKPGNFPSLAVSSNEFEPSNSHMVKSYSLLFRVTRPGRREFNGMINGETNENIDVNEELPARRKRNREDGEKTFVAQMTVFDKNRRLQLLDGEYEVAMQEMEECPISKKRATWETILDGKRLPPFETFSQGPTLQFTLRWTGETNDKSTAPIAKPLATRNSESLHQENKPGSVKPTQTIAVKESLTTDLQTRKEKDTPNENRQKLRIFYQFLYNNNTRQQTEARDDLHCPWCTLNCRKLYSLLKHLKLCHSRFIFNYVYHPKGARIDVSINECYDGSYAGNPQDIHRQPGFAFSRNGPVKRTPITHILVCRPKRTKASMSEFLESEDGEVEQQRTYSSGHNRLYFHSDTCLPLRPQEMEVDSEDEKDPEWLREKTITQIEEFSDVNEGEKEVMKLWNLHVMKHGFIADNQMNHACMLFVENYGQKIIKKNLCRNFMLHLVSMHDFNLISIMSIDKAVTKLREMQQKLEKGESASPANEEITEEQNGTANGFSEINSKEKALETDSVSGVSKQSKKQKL
# T1 sequence (Q09028 whole entry partner): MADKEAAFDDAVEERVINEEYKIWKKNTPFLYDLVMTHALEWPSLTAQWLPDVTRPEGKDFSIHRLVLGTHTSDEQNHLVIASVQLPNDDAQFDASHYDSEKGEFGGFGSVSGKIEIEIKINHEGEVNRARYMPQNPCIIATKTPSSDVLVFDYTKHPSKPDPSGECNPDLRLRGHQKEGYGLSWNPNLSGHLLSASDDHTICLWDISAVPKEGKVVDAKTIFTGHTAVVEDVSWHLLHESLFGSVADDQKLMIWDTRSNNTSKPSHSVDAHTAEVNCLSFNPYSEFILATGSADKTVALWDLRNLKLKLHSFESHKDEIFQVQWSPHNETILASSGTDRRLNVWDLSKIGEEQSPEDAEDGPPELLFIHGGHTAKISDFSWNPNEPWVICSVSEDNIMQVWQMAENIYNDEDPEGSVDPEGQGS
# T1 sequence (Q6ZN18 whole entry partner): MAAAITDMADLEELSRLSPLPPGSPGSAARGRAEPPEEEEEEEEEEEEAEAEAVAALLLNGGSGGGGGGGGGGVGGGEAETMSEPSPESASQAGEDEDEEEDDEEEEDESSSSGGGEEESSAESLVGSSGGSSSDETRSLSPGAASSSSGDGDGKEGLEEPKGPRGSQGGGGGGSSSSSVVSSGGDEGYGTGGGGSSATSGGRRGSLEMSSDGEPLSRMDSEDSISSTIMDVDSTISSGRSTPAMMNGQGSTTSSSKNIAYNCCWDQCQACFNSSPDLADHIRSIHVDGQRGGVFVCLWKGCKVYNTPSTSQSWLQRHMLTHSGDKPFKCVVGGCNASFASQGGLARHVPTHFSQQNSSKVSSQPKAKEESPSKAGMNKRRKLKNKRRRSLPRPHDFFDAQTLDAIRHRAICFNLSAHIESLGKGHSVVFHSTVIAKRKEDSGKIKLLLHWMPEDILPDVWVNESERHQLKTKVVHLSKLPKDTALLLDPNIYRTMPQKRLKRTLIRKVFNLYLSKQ
Structure (SMILES),IC50 [1] [nM],IC50 [2] [nM]
"CCN(c1sc(Br)c(C(=O)NCc2c(C)cc(C)[nH]c2=O)c1C)C1CCOCC1 [Example 19, 2-Bromo-N-((4,6-dimethyl-2-oxo-1,2-dihydropyridin-3-yl)methyl)-5-(ethyl(tetrahydro-2H-pyran-4-yl)amino)-4-methylthiophene-3-carboxamide]",20,≤ 10
"Cc1cc(C)c(CNC(=O)c2csc(C(O)C3CCN(C(=O)OC(C)(C)C)CC3)c2C)c(=O)[nH]1 (stereo not shown) [Example 20, tert-Butyl 4-((4-(((4,6-dimethyl-2-oxo-1,2-dihydropyridin-3-yl)methyl)carbamoyl)-3-methylthiophen-2-yl)(hydroxy)methyl)piperidine-1-carboxylate]",1590,158
"Cc1cc(C)c(CNC(=O)c2csc(C(O)C3CCNCC3)c2C)c(=O)[nH]1 (stereo not shown) [Example 21, N-((4,6-dimethyl-2-oxo-1,2-dihydropyridin-3-yl)methyl)-5-(hydroxy(piperidin-4-yl)methyl)-4-methylthiophene-3-carboxamide]",316,100
"Cc1cc(C)c(CNC(=O)c2csc(C3CCCN3C3CCOCC3)c2C)c(=O)[nH]1 (stereo not shown) [Example 22, N-((4,6-Dimethyl-2-oxo-1,2-dihydropyridin-3-yl)methyl)-4-methyl-5-(1-(tetrahydro-2H-pyran-4-yl)pyrrolidin-2-yl)thiophene-3-carboxamide]",6310,398
"Cc1cc(C)c(CNC(=O)c2csc(-c3cnn(C4CCNCC4)c3)c2C)c(=O)[nH]1 [Example 23, N-((4,6-dimethyl-2-oxo-1,2-dihydropyridin-3-yl)methyl)-4-methyl-5-(1-(piperidin-4-yl)-1H-pyrazol-4-yl)thiophene-3-carboxamide]",3980,501
"Cc1cc(C)c(CNC(=O)c2csc(C3CCN(C(=O)OC(C)(C)C)C3)c2C)c(=O)[nH]1 (stereo not shown) [Example 24, tert-Butyl 3-(4-(((4,6-dimethyl-2-oxo-1,2-dihydropyridin-3-yl)methyl)carbamoyl)-3-methylthiophen-2-yl)pyrrolidine-1-carboxylate]",3980,251
"Cc1cc(C)c(CNC(=O)c2csc(N3CCCC3C)c2C)c(=O)[nH]1 (stereo not shown) [Example 25, N-((4,6-Dimethyl-2-oxo-1,2-dihydropyridin-3-yl)methyl)-4-methyl-5-(2-methylpyrrolidin-1-yl)thiophene-3-carboxamide]",630,100
"Cc1cc(C)c(CNC(=O)c2csc(C(C)N3CCOCC3)c2C)c(=O)[nH]1 (stereo not shown) [Example 26, N-((4,6-dimethyl-2-oxo-1,2-dihydropyridin-3-yl)methyl)-4-methyl-5-(1-morpholinoethyl)thiophene-3-carboxamide]",5010,630
"Cc1cc(C)c(CNC(=O)c2csc(C(C)N3CCC(N(C)C)CC3)c2C)c(=O)[nH]1 (stereo not shown) [Example 27, N-((4,6-dimethyl-2-oxo-1,2-dihydropyridin-3-yl)methyl)-5-(1-(4-(dimethylamino)piperidin-1-yl)ethyl)-4-methylthiophene-3-carboxamide hydrochloride]",63,31
"CCC(c1scc(C(=O)NCc2c(C)cc(C)[nH]c2=O)c1C)N1CCC(N(C)C)CC1 (stereo not shown) [Example 28, N-((4,6-dimethyl-2-oxo-1,2-dihydropyridin-3-yl)methyl)-5-(1-(4-(dimethylamino)piperidin-1-yl)propyl)-4-methylthiophene-3-carboxamide]",63,19

# Second part, the molecule after the results:
IC50 [1] [nM],IC50 [2] [nM],Structure (SMILES)
3160,398,"CCC(c1scc(C(=O)NCc2c(C)cc(C)[nH]c2=O)c1C)N1CCOCC1 (stereo not shown) [Example 29, N-((4,6-dimethyl-2-oxo-1,2-dihydropyridin-3-yl)methyl)-4-methyl-5-(1-morpholinopropyl)thiophene-3-carboxamide]"
≥ 100000,39800,"CCN(c1ccc(C(=O)NCc2c(C)cc(C)[nH]c2=O)s1)C1CCOCC1 [Example 30, N-((4,6-Dimethyl-2-oxo-1,2-dihydropyridin-3-yl)methyl)-5-(ethyl(tetrahydro-2H-pyran-4-yl)amino)thiophene-2-carboxamide]"
794,100,"CCN(c1scc(C(=O)NCc2c(C)cc(C)n(C)c2=O)c1C)C1CCOCC1 [Example 31, 5-(Ethyl(tetrahydro-2H-pyran-4-yl)amino)-4-methyl-N-((1,4,6-trimethyl-2-oxo-1,2-dihydropyridin-3-yl)methyl)thiophene-3-carboxamide]"
50,≤ 10,"CCN(c1scc(C(=O)NCc2c(C)cc(C)n(C)c2=O)c1C)[C@H]1CC[C@H](N(C)C)CC1 [Example 32, 5-(((trans)-4-(Dimethylamino)cyclohexyl)(ethyl)amino)-4-methyl-N-((1,4,6-trimethyl-2-oxo-1,2-dihydropyridin-3-yl)methyl)thiophene-3-carboxamide]"

# From patent US9505745B2, “Enhancer of zeste homolog 2 inhibitors” (GlaxoSmithKline Intellectual Property (No.2) Limited, priority 2013, dated 2016)
